Results taken from patent US20040102514A1 (priority 2003, published 2004).
Entries after “also recorded” stand apart in the source; their conditions may differ.

Key:
[1] = test system: Sprague-Dawley rats; settings: rat, in vivo
[2] = test system: Sprague-Dawley rats; settings: rat, in vivo; remark: listed apart in the source
[3] = test system: weanling pigs; settings: pig, in vivo

Compound: 7α,15-benzylidene-9α,12β-dimethyltrichothecan-3α,8α,12α-triol [EN139502]
- delay before intensified fasting pattern [1]: approximately 5 min
- effect on fasting pattern of gut motility [1]: intensify or enhance the fasting pattern
- induction of fed pattern of gut motility [1]: did not induce the fed pattern gut motility

Compound: C[C@@H]1C[C@H]2O[C@@H]3[C@H](O)C[C@](C)([C@]24COC(c2ccccc2)O[C@@H]4C1=O)[C@@]3(C)O (stereo partly drawn) [EN139522, 7α,15-benzylidene-9α, 12β-dimethyl-3α, 12α-dihydroxytricocethcan-8-one]
- duration of action (fed pattern) [1]: 35 min
- induction of fed pattern of gut motility [1]: induce a classic fed pattern
- time of onset of action after administration [1]: 20 s

Compound: 7α, 15-benzylidene-3α,8αdiacetoxy-9α,12β-dimethyltrichothecan-12α-ol [EN139508]
- duration of induced pattern [1]: approximately 30 minutes
- induction of fed pattern of gut motility [1]: induced a dose-dependent fed pattern of gut motility
- onset time of action (duodenal site D1) [1]: approximately 60 seconds
- pattern of gut motor activity induced [1]: induced a dose-dependent fed pattern of gut motility
- time of onset of action after administration [1]: approximately 60 seconds

Compound: CC1=C[C@H]2O[C@@H]3[C@H](O)C[C@](C)([C@@]2(CO)[C@H](O)C1=O)[C@]31CO1 [DON, 3α,7α, 15-trihydroxy-12,13-epoxy-trichothec-9-en-8-one]
- induction of fed pattern of gut motility [1]: induced the fed pattern of gut motility
- food consumption [2]: immediate and sustained reduction; also recorded: concentration-dependant reduction; also recorded: decrease
- weight gain [2]: immediate and sustained reduction; also recorded: concentration-dependant reduction; also recorded: decrease
- emesis [3]: some emesis occurred
- food consumption in the Day 1 AM meal following the treat [3]: decreased food consumption
- persistence of effect on food consumption at Day 1 PM and following meals [3]: wore off by the next meal
